Results published in US8957093B2, “N-biphenylmethylindole modulators of PPARG” (The Scripps Research Institute, priority 2011, dated 2015).
pEC50: −log10 of the molar value. Read-outs that look alike come from different tables or passages of the source.

What was measured:
GST-PPARG-LBD = GST-PPARG-LBD (Homo sapiens (Human), UniProt P37231); assay: Lanthascreen PPARG competitive binding assay (Invitrogen, TR-FRET); settings: NA = not active, inc = incomplete curve, read-out: IC50 (nM) Lantha
Method in brief: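 Values are fold change in 520 nm/490 nm FRET ratio relative to a 2% DMSO no-ligand control, excitation 340 nm. Compound dilutions starting at 10 μM competed against 5 nM Fluormone Pan-PPAR Green for GST-PPARG-LBD bound by 5 nM Tb anti-GST antibody. Incubation 2 h in the dark in assay buffer C, triplicate wells.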

[1] = tested on: PPARG (murine PPARg2 or full-length human PPARG, 3xPPRE-luciferase reporter); assay: Cell-based PPRE-luciferase transactivation assay in COS-1 cells; settings: for EC50: PPRE-luciferase, COS-1 cells, NA = not active, read-out: EC50 (nM) PPRE; for PPRE transactivation (% in parentheses): rosiglitazone = 100%
Method: Cell-Based Transactivation Assay:
PPRE is a DNA that contains a binding site for PPARG; thus PPRE is a PPAR response element, used herein as a promoter reporter. The binding site is a DR1 response element with the sequence AGGTCA repeated 3 times in tandem and then fused to a construct for luciferase.
Thus, PPRE is the basis of the cell based transactivation assay described below. The plasmid DNA is co-transfected along with a plasmid for PPARG into COS-1 cells. After an overnight incubation, cells are treated with DMSO or compounds.
Confluent COS-1 cells were transfected with 4.5 μg murine PPARg2-pSV Sport or full-length human PPAR9-pSport6, 4.5 μg 3×PPRE-luciferase reporter and 27 μL X-treme Gene 9 transfection reagent in serum-free opti-mem media (Gibco), followed by overnight incubation at 37° C., 5% CO2. Transfected cells were plated in white Perkin Elmer 384-well plates and incubated 4 hours. […] After 18 hour incubation, treated cells were developed with Brite Lite Plus (Perkin Elmer) and read in 384-well Luminescence Perkin Elmer EnVision Multilabel plate reader. Graphs were plotted in triplicate in GraphPad Prism Software as fold change of treated cells over DMSO control cells.

[2] = molecular target: Gal-4-PPAR (human PPAR LBD fused to GAL4 DNA-binding domain) (Homo sapiens (Human), UniProt P37231); assay: GAL4-PPARG LBD / UAS-luciferase transactivation assay in HEK 293T cells; assay type: cell-based
[3] = Lanthascreen competitive binding
[4] = GAL4 transactivation, HEK 293T cells; NA = not active; read-out: EC50 (nM) GAL4
[5] = HEK-293T, 18 h; read-out: % transactivation at 10 μM (GAL4)

Gal-4-PPAR (human PPAR LBD fused to GAL4 DNA-binding domain), sequence (P37231 238-503): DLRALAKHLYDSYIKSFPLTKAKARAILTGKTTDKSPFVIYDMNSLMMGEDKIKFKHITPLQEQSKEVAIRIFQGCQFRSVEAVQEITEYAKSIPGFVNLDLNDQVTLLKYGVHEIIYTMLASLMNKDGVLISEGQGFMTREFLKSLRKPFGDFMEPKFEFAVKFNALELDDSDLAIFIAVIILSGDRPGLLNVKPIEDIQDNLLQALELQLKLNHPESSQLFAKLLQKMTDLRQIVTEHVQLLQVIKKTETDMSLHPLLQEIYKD
GST-PPARG-LBD, sequence (P37231 238-503): as above

EC50 [2, 4]	Structure (SMILES)	IC50 (GST-PPARG-LBD; [3])	EC50 [1]	PPRE transactivation (% in parentheses) [1]	activation at 10 µM [2, 5]	also measured
	Cc1c(C)n(Cc2ccc(-c3ccccc3C(=O)O)cc2)c2ccc(C(=O)NCc3ccc(F)cc3)cc12 [Example 76, 4′-((5-(4-fluorobenzylcarbamoyl)-2,3-dimethyl-1H-indol-1-yl)methyl)biphenyl-2-carboxylic acid]	5 nM	23 nM	(15%)		
	Cc1c(C)n(Cc2ccc(-c3ccccc3C(=O)O)cc2)c2ccc(C(=O)NCc3ccc(C(C)C)cc3)cc12 [compound 9, 4′-((5-(4-Isopropylbenzylcarbamoyl)-2,3-dimethyl-1H-indol-1-yl)methyl)biphenyl-2-carboxylic acid]	23 nM	7 nM	(18%)		
	Cc1c(C)n(Cc2ccc(-c3ccccc3C(=O)O)cc2)c2ccc(C(=O)NCc3ccc(OC(F)(F)F)cc3)cc12 [compound 15, 4′-((2,3-Dimethyl-5-(4-(trifluoromethoxy)benzylcarbamoyl)-1H-indol-1-yl)methyl)biphenyl-2-carboxylic acid]		83 nM	(20%)		
	Cc1c(C)n(Cc2ccc(-c3ccccc3C(=O)O)cc2)c2ccc(C(=O)N[C@@H](C)c3ccc(Cl)cc3)cc12 [compound 27, (S)-4′-((5-((1-(4-Chlorophenyl)ethyl)carbamoyl)-2,3-dimethyl-1H-indol-1-yl)methyl)-[1,1′-biphenyl]-2-carboxylic acid]	53 nM	33 nM	(6%)		
	CCC(NC(=O)c1ccc2c(ccn2Cc2ccccc2-c2cccc(C(=O)O)c2)c1)c1ccccc1 (stereo not shown) [Example 69, 2′-((5-((1-Phenylpropyl)carbamoyl)-1H-indol-1-yl)methyl)-[1,1′-biphenyl]-3-carboxylic acid]	4 nM		(0%)		
	CCC(NC(=O)c1ccc2c(ccn2Cc2cccc(-c3ccccc3C(=O)O)c2)c1)c1ccccc1 (stereo not shown) [Example 65, 3′-((5-((1-phenylpropyl)carbamoyl)-1H-indol-1-yl)methyl)-[1,1′-biphenyl]-2-carboxylic acid]	6 nM	116 nM	(18%)		
	Cc1cc2cc(C(=O)N[C@@H](C)c3ccc(Br)cc3)ccc2n1Cc1ccc(-c2ccccc2C(=O)O)cc1 [Example 135, (S)-4′-((5-((1-(4-Bromophenyl)ethyl)carbamoyl)-2-methyl-1H-indol-1-yl)methyl)-[1,1′-biphenyl]-2-carboxylic acid]	80 nM		(0%)		
	Cc1c(C)n(Cc2ccc(-c3ccccc3C(=O)O)cc2)c2ccc(C(=O)NCC3COc4ccccc4O3)cc12 (stereo not shown) [Example 88, 4′-((5-((2,3-dihydrobenzo[b][1,4]dioxin-2-yl)methylcarbamoyl)-2,3-dimethyl-1H-indol-1-yl)methyl)biphenyl-2-carboxylic acid]	11 nM	170 nM	(17%)		
	Cc1c(C)n(Cc2ccc(-c3ccccc3C(=O)O)cc2)c2ccc(C(=O)NC3COc4ccccc4C3)cc12 (stereo not shown) [Example 86, 4′-((5-(chroman-3-ylcarbamoyl)-2,3-dimethyl-1H-indol-1-yl)methyl)biphenyl-2-carboxylic acid]	10 nM		(0%)		
	Cc1c(C)n(Cc2ccc(-c3ccccc3C#N)cc2)c2ccc(C(=O)N[C@@H](C)c3ccc(Br)cc3)cc12 [Example 35, (S)—N-(1-(4-Bromophenyl)ethyl)-1-((2′-cyano-[1,1′-biphenyl]-4-yl)methyl)-2,3-dimethyl-1H-indole-5-carboxamide]	40 nM	380 nM	(9%)		
	Cc1c(C)n(Cc2ccc(-c3ccccc3C(=O)O)cc2)c2ccc(C(=O)NC(C)c3cccc4ccccc34)cc12 (stereo not shown) [Example 116, 4′-((2,3-dimethyl-5-(1-(naphthalen-1-yl)ethylcarbamoyl)-1H-indol-1-yl)methyl)biphenyl-2-carboxylic acid]	2 nM	5 nM	(16%)		
	Cc1c(C)n(Cc2ccc(-c3ccccc3C(=O)O)cc2)c2ccc(C(=O)NCc3ccc(F)c(F)c3)cc12 [Example 77, 4′-((5-(3,4-difluorobenzylcarbamoyl)-2,3-dimethyl-1H-indol-1-yl)methyl)biphenyl-2-carboxylic acid]		95 nM	(20%)		
180 nM	Cc1c(C)n(Cc2ccc(-c3ccccc3C(=O)O)cc2)c2ccc(C(=O)N[C@@H](C)c3ccc(F)cc3F)cc12 [Example 150, (S)-4′-((5-((1-(2,4-difluorophenyl)ethyl)carbamoyl)-2,3-dimethyl-1H-indol-1-yl)methyl)-[1,1′-biphenyl]-2-carboxylic acid]	5 nM			30%	
453 nM	Cc1c(C)n(Cc2ccc(-c3ccccc3C(=O)O)cc2)c2ccc(C(=O)N[C@@H](C)c3cc(F)ccc3C(F)(F)F)cc12 [Example 241, (S)-4′-((5-((1-(5-fluoro-2-(trifluoromethyl)phenyl)ethyl)carbamoyl)-2,3-dimethyl-1H-indol-1-yl)methyl)-[1,1′-biphenyl]-2-carboxylic acid]	57 nM				activation at 10 µM ([2]; HEK-293T, 18 h, read-out: % transactivation at 10 μM (GAL4)): 20%
	Cc1c(C)n(Cc2ccc(-c3ccccc3C(N)=O)cc2)c2ccc(C(=O)N[C@@H](C)c3cccc(C(C)C)c3)cc12 [Example 315, (S)-1-((2′-Carbamoyl-[1,1′-biphenyl]-4-yl)methyl)-N-(1-(3-isopropylphenyl)ethyl)-2,3-dimethyl-1H-indole-5-carboxamide]				2%	IC50 (GST-PPARG-LBD; Lanthascreen PPARG competitive binding): 62 nM; pEC50 [2]: 6.86
297 nM	Cc1c(C)n(Cc2ccc(-c3ccccc3C(=O)O)cc2)c2ccc(C(=O)N[C@@H](C)c3cccc(Cl)c3F)cc12 [Example 232, (S)-4′-((5-((1-(3-chloro-2-fluorophenyl)ethyl)carbamoyl)-2,3-dimethyl-1H-indol-1-yl)methyl)-[1,1′-biphenyl]-2-carboxylic acid]	18 nM			30%	
13 nM	Cc1c(C)n(Cc2ccc(-c3ccccc3C(=O)O)cc2)c2ccc(C(=O)N[C@@H](C)c3ccccn3)cc12 [Example 144, (S)-4′-((2,3-dimethyl-5-((1-(pyridin-2-yl)ethyl)carbamoyl)-1H-indol-1-yl)methyl)-[1,1′-biphenyl]-2-carboxylic acid]	2 nM			25%	

Structure (SMILES)	EC50 [2, 4]	IC50 (GST-PPARG-LBD; [3])	EC50 [1]	PPRE transactivation (% in parentheses) [1]	activation at 10 µM [2, 5]	also measured
Cc1c(C)n(Cc2ccc(-c3ccccc3C(=O)O)cc2)c2ccc(C(=O)N[C@@H](C)c3cc(C(F)(F)F)ccc3F)cc12 [Example 221, (S)-4′-((5-((1-(2-fluoro-5-(trifluoromethyl)phenyl)ethyl)carbamoyl)-2,3-dimethyl-1H-indol-1-yl)methyl)-[1,1′-biphenyl]-2-carboxylic acid]	156 nM	11 nM			20%	
Cc1c(C)n(Cc2ccc(-c3ccccc3C(=O)O)cc2)c2ccc(C(=O)N[C@@H](C)c3ccc(C(F)(F)F)cc3C(F)(F)F)cc12 [Example 210, (S)-4′-((5-((1-(2,4-bis(trifluoromethyl)phenyl)ethyl)carbamoyl)-2,3-dimethyl-1H-indol-1-yl)methyl)-[1,1′-biphenyl]-2-carboxylic acid]	1290 nM	241 nM			20%	
Cc1c(C)n(Cc2ccc(-c3ccccc3C(=O)O)cc2)c2ccc(C(=O)N[C@@H](C)c3ccc4c(c3)CCO4)cc12 [Example 218, (S)-4′-((5-((1-(2,3-dihydrobenzofuran-5-yl)ethyl)carbamoyl)-2,3-dimethyl-1H-indol-1-yl)methyl)-[1,1′-biphenyl]-2-carboxylic acid]	2550 nM	223 nM			45%	
